Where “and” joins values, the source holds several entries; their conditions need not be identical. Identical values can stand only once.
What was measured:
murine B16 melanoma = assay: Antitumor effect in murine B16 melanoma model, tumor size and tumor weight (Example 2); type: in vivo, C57BL/6 mice; details: for Tumor volumes (cm^3) on Day 15: Length × Width × Width/2; for Tumor measurements L / Tumor measurements W / Tumor volumes: DTIC 50 mg/kg
Procedure: As per aseptic tissue culture procedures, one vial of B16 melanoma cells (supplied by Cell Culture Center of CAMS) was thawed and centrifuged at 1000 rpm, 20-25° C. for 5 minutes. The cell pellets were suspended in 0.1-0.5 mL normal saline (NS) and subcutaneously injected into the right axilla of each mouse (approximately 1×10^6 cells/mouse). When the tumor diameter was 1 cm approximately (measured by vernier caliper), the animals were euthanized with CO2 asphyxiation and the tumor was excised. Tumor cells were suspended in normal saline as previously described and the cell adaptation cycle was repeated once.
On Day 0, 1×10^6 B16 cells in a volume of 0.1 mL normal saline were subcutaneously injected into the right axillary area of the mouse. The day of tumor inoculation was defined as Day 0.
Dosing was initiated on Day 1.
Observations were recorded daily for mortality and moribundity. […] The tumors were excised, separated, and weighed.
Tumor volume was calculated using the following formula: Tumor Volume=Length×Width×Width/2 Tumor volume inhibition rate (IR) was calculated according to the formula: IR(TV)=(TVvehicle−TVdrug treated)/TVvehicle×100% TV is the tumor volume on the day of measurement.
The antitumor effect of the test article was also evaluated by tumor weight. The tumor weight of each mouse was recorded after euthanasia, and the inhibition rate of tumor weight was calculated according to the formula: IR(TW)=(Tumor weightvehicle−Tumor weightdrug treated)/Tumor weightvehicle×100%

B16 melanoma = B16 melanoma tumor growth, tumor weight and survival in C57/Bl6 mice, i.p. treatment (Example 1); type: in vivo; details: DTIC 50 mg/kg i.p.
Procedure: Tumors were induced by injecting 1×10^6 B16 melanoma cells subcutaneously in the hind leg of C57/Bl6 syngeneic mice. Mice were randomized into 5 groups of 10 animals and treated with SCV-07 at doses of 0.001, 0.01, or 0.10 mg/kg administered daily i.p. for 3 consecutive days for 2 weeks, starting 3 days after tumor implantation. Control groups were treated with saline or dacarbazine (DTIC) at a dose of 50 mg/kg i.p. for 3 days. Tumor growth was assessed every 3 days by a caliper and tumor weight was measured upon death.
Mice were injected with B16 melanoma cells and divided into 5 groups of 10 mice each. Control mice were given injections of saline or dacarbazine (DTIC). The effects of different doses of SCV-07 were examined with respect to tumor growth rate and survival time.

[1] = DTIC 50 mg/kg (Group 2), Day 15, individual animals F1-F5, M1-M5

With `CN(C)/N=N/c1[nH]cnc1C(N)=O` [DTIC, Dacarbazine, reference compound] the “Tumor volumes (cm^3) on Day 15” value (murine B16 melanoma; DTIC 50 mg/kg (Group 2), Day 15, individual animals F1-F5, M1-M5, female animals) was 0.36 cm^3 and 0.15 cm^3 and 0.11 cm^3 and 0.01 cm^3, the “Tumor volumes (cm^3) on Day 15” value (murine B16 melanoma; DTIC 50 mg/kg (Group 2), Day 15, individual animals F1-F5, M1-M5, male animals) was 0.03 cm^3 (2×) and 0.06 cm^3 and 0.17 cm^3 and 0.01 cm^3 and the “Tumor measurements (cm) on Day 15, L” value (murine B16 melanoma; [1]) was 0.3 cm (2×) and 0.4 cm (2×) and 0.7 cm and 0.9 cm and 0.5 cm and 1.2 cm and 0.6 cm. The “Tumor measurements (cm) on Day 15, W” value (murine B16 melanoma; [1]) was 0.3 cm (2×) and 0.4 cm (2×) and 0.7 cm and 0.5 cm (2×) and 0.9 cm and 0.6 cm, the “Tumor weights (g) on Day 17” value (murine B16 melanoma; DTIC 50 mg/kg (Group 2), Day 17, individual animals F1-F5, M1-M5, female animals) was 0.70 g and 0.29 g and 0.98 g and 0.78 g and 0.5 g and the “Tumor weights (g) on Day 17” value (murine B16 melanoma; DTIC 50 mg/kg (Group 2), Day 17, individual animals F1-F5, M1-M5, male animals) was 0.46 g and 0.54 g and 0.37 g and 0.915 g and 0.18 g. The “Tumor Volume (Mean ± SD)” value (murine B16 melanoma; Day 3, DTIC 50 mg/kg/day, not measurable defined as 0) was 0 cm^3, the “Tumor Volume (Mean ± SD)” value (murine B16 melanoma; Day 6, DTIC 50 mg/kg/day, not measurable defined as 0) was 0 cm^3 and the “IR (tumor volume inhibition rate)” value (murine B16 melanoma; Day 9, DTIC 50 mg/kg/day) was 96.9%. For the same compound, the “Tumor Volume (Mean ± SD)” value (murine B16 melanoma; Day 9, DTIC 50 mg/kg/day) was 0.001 ± 0.004 cm^3, the “Tumor measurements L” value (murine B16 melanoma; Day 9, mouse F2) was 0.3 cm and the “Tumor measurements W” value (murine B16 melanoma; Day 9, mouse F2) was 0.3 cm. For the same compound, the Tumor volumes (murine B16 melanoma; Day 9, mouse F2) was 0.01 cm^3, the “IR (tumor volume inhibition rate)” value (murine B16 melanoma; Day 12, DTIC 50 mg/kg/day) was 98.8% and the “Tumor Volume (Mean ± SD)” value (murine B16 melanoma; Day 12, DTIC 50 mg/kg/day) was 0.009 ± 0.020 cm^3. The “Tumor measurements L” value (murine B16 melanoma; Day 12, mouse F1) was 0.3 cm, the “Tumor measurements W” value (murine B16 melanoma; Day 12, mouse F1) was 0.3 cm and the Tumor volumes (murine B16 melanoma; Day 12, mouse F1) was 0.01 cm^3. The “Tumor measurements L” value (murine B16 melanoma; Day 12, mouse F3) was 0.1 cm, the “Tumor measurements W” value (murine B16 melanoma; Day 12, mouse F3) was 0.1 cm and the Tumor volumes (murine B16 melanoma; Day 12, mouse F3) was 5E−04 cm^3. The “Tumor measurements L” value (murine B16 melanoma; Day 12, mouse F4) was 0.3 cm, the “Tumor measurements W” value (murine B16 melanoma; Day 12, mouse F4) was 0.3 cm and the Tumor volumes (murine B16 melanoma; Day 12, mouse F4) was 0.01 cm^3. The “Tumor measurements L” value (murine B16 melanoma; Day 12, mouse F5) was 0.1 cm, the “Tumor measurements W” value (murine B16 melanoma; Day 12, mouse F5) was 0.1 cm and the Tumor volumes (murine B16 melanoma; Day 12, mouse F5) was 5E−04 cm^3. The “Tumor measurements L” value (murine B16 melanoma; Day 12, mouse M2) was 0.5 cm, the “Tumor measurements W” value (murine B16 melanoma; Day 12, mouse M2) was 0.5 cm and the Tumor volumes (murine B16 melanoma; Day 12, mouse M2) was 0.06 cm^3. For the same compound, the “IR (tumor volume inhibition rate)” value (murine B16 melanoma; Day 15, DTIC 50 mg/kg/day) was 95.1%, the “Tumor Volume (Mean ± SD)” value (murine B16 melanoma; Day 15, DTIC 50 mg/kg/day) was 0.095 ± 0.112 cm^3 and the “IR (inhibition rate of tumor weight)” value (murine B16 melanoma; Day 17, DTIC 50 mg/kg/day) was 85.0%. The “Tumor Weight (Mean ± SD)” value (murine B16 melanoma; Day 17, DTIC 50 mg/kg/day) was 0.57 ± 0.27 g, the “MEAN TUMOR VOLUME” value (B16 melanoma; DAY 10 after tumor inoculation) was 480 ± 13 mm^3 and the “MEAN TUMOR VOLUME” value (B16 melanoma; DAY 17 after tumor inoculation) was 545 ± 170 mm^3. For the same compound, the “DAY 24 % of control (inhibition in tumor growth)” value (B16 melanoma; DAY 24) was 19%, the “MEAN TUMOR VOLUME” value (B16 melanoma; DAY 24 after tumor inoculation) was 760 ± 220 mm^3 and the “mean tumor weight lower” value (B16 melanoma) was 15%.
